How the values were obtained:
[1] = tested on: SLPI production, A549 cells; test: SLPI production by A549 cells (ELISA); format: cell-based
Procedure: A549 cells were grown to 50% confluence in Dulbecco's modified medium (DMEM) containing 10% fetal calf serum (FCS) before incubation for 48-72 hr in serura-free media.
Determination of GM-CSF expression was measured by sandwich ELISA (Pharmingen, Lugano, Switzerland) according to the manufacturer's instructions. For immunoassay of SLPI and acetylated histone, polystyrene microtitre plates were coated overnight at 4° C. with sample diluted with hydroxy carbonate (pH 9.6). Plates were blocked for 2 hr with 5 % ovalbumin in PBS. Antibodies against SLPI (R&D Systems Europe, Abingdon, UK), K5, K8, K12 and K16 acetylated histone 4 (Serotec, Oxford, UK) were diluted 1:300-1:1000 and added to each plate. After 1 hr at room temperature plates were washed sequentially with 0.1% Tween20-PBS and incubated with HRP conjugated goat anti-rabbit antibody (DAKO, Cambridge, UK) for 1 hr. Detection was performed with ABTS following Pharmingen instructions. Recombinant human SLPI (R&D Systems Europe) was used as a standard. As a standard for acetylated histone, crude extracted histone from A549 cells incubated with TSA (100 ng/ml) for 6 hr was used, and the value was calculated in units, where 1 unit is equivalent to the absorbance of 50 ng of TSA-treated hyperacetylated histone after subtraction of BSA-induced histone acetylation.

[2] = tested on: histone acetylation, A549 cells; test: Histone acetylation, [3H]-acetate incorporation in whole A549 cells; format: cell-based
Text: Histones were isolated and separated by SDS-PAGE and [^3H]-acetate incorporated histones were counted and normalised to protein level. […] Data represents mean±SEM of 3 independent experiments. **p<0.01.

[3] = tested on: histone H4 lysines K5, K8, K12, K16; test: Immunocytochemical staining for acetylated histone H4 lysine residues; format: cell-based; conditions: 6 hr
Procedure: Immunocytochemical staining for specific histone H4 acetylated lysine residues. […] Results are representative of 4 independent experiments.
Cells were washed with Hanks solution, and air-dried for 30 min at RT. Cells were then fixed in ice-cold acetone-methanol (50/50, w/w) (−20° C.) for 10 min. Slides were air dried and incubated with blocking buffer (20% normal swine serum in PBS, 0.1% saponin)(Dako) for 20 mmn followed by 1 hr incubation with primary antibody solution (PBS, 0.1% saponin, 1% BSA). Antibodies against pan-acetylated H4, H4-K5, H4-K8, H4-K12 and H4-K16 (Serotec) were used at 1:100 to 1:300 dilution. Slides were washed twice and incubated with biotinylated swine anti-rabbit IgG (Dako)(1:200) for 45 min. Slides were washed again before incubation with fluorescein isothiocyante-conjugated streptavidine (1:100) for 45 min. The slides were washed twice more before counterstaining with 20% haematoxyline, and mounting. Stained cells were observed by confocal microscopy. Confocal scanning laser microscopy images were collected with a Leica confocal microscope, equipped with a 488/514 nm dual band argon ion laser. An oil-immersion objective was used and images were collected using TCSNT software.

[4] = tested on: p65-associated histone acetylation; test: p65-immunoprecipitated histone acetylation (IP-HAT assay); format: cell-based
Procedure: Total cellular proteins were isolated and p65 associated proteins immunoprecipitated under stringent conditions (see methods). The associated histone acetylation activity was measured following incubation of the p65-IP extract with 10 μg free core histones and 0.25 mCi of ^3H-acetyl CoA for 45 minutes.
Histone acetylation experiments were performed as in (A) in the presence of TSA (100 ng/ml).
Extracts were prepared using 100 μl of stringent immunoprecipitation (IP) buffer (50 mM Tris-HCl, pH 8.0, 150 mM NaCl, 1.0% triton X-100, 0.5% NP-40, 0.1% SDS, 0.5% deoxycholate, complete protease inhibitor cocktail (Boehringer-Mannheim)) or mild IP buffer (10 mM Tris-HCl, pH 8.0, 150 mM NaCl, 0.5% NP-40, complete protease inhibitor cocktail (Boehringer-Mannheim)). […] After microcentrifugation, 20 μl of A/G agarose conjugated with 5 μg of antibody were used to precipitate CBP, PCAF, GR or p65 overnight at 4° C. with rotation.
Immune complexes with resin were resuspended in 150 μl of HAT buffer (50 mM Tris-HCl, pH 8.0, 10% glycerol, 1 mM dithiothreitol, 0.1 mM EDTA, complete protease inhibitor cocktail). Typically, 20 μl of free core histone solution extracted from A549 cells (final amount 10 μg) and 30 μl of immunoprecipitate were incubated. Reactions were initiated by the addition of 0.25 mCi of [^3H] acetyl-CoA (5 Ci/mmol)(Amersham) and performed for 45 min at 30° C.

[5] = tested on: CBP-associated HAT activity; test: CBP-immunoprecipitated histone acetylation (IP-HAT assay); format: cell-based
Procedure: […]. Cells were treated as in (A) and CBP immunoprecipitated under stringent conditions (see methods). Histone acetylation was measured as in (A) and results presented as mean±sem of at least 3 independent experiments, *p<0.05.
[…]. Cells were treated as in (A) and CBP immunoprecipitated under mild conditions (see methods). Histone acetylation was measured as in (A). […] Results presented as mean±sem of at least 3 independent experiments, *p<0.05.
Extracts were prepared using 100 μl of stringent immunoprecipitation (IP) buffer (50 mM Tris-HCl, pH 8.0, 150 mM NaCl, 1.0% triton X-100, 0.5% NP-40, 0.1% SDS, 0.5% deoxycholate, complete protease inhibitor cocktail (Boehringer-Mannheim)) or mild IP buffer (10 mM Tris-HCl, pH 8.0, 150 mM NaCl, 0.5% NP-40, complete protease inhibitor cocktail (Boehringer-Mannheim)). The lysis mixture was incubated on ice for 15 min and microfuged for 10 min at 4° C. Extracts were precleared with 20 μl of A/G agarose (a 50:50 mix; Santa Cruz, Santa Cruz, Calif.) and 2 μg of normal IgG. After microcentrifugation, 20 μl of A/G agarose conjugated with 5 μg of antibody were used to precipitate CBP, PCAF, GR or p65 overnight at 4° C. with rotation. […]
IP-HAT assays were performed using a modified method of Ogryzko (Ogryzko, V. V et al (1996) Cell 87:953-959). […] The dried filters were counted in a liquid scintillation counter.

[6] = tested on: CBP, PCAF; test: CBP and PCAF expression in A549 cells (Western blot); format: cell-based; conditions: 10^−8 and 10^−6M, 6 hrs
Text: Proteins were extracted and size fractionated by SDS-PAGE and CBP and PCAF detected by Western blotting. Results are representative of 3 independent experiments. […] Immunoreactive bands were detected by ECL.

[7] = tested on: histone deacetylase (HDAC) activity, A549 cells; test: Histone deacetylation activity in total cellular extracts of treated A549 cells; conditions: 4 hrs; theophylline pre-treatment 10^−5 M, 10 min
Procedure: (B) Effect of Trichostatin A (TSA) on histone deacetylase activity and histone H4 acetylation. Cells were treated with increasing concentrations of TSA for 6 hrs before total cellular proteins were isolated and analysed for deacetylase activity and also histone acetylation by Western blotting using an anti-pan acetylated histone H4 antibody.
Effect of theophylline on histone deacetylase (HDAC) activity in A549 cells. (a) Cells were stimulated with LPS (3 ng/ml) for 24 hours in the presence or absence of theophylline (10^−5 M) or Dex (10^−6 M). Total cellular proteins were extracted and histone deacetylase activity measured. (b) Direct effect of theophylline on HDAC activity. […] Results are expressed as mean±SEM (n=3-5, *p<0.05, **p<0.01).

[8] = tested on: HDAC activity; test: Direct effect on HDAC activity of nuclear proteins from untreated A549 cells; format: biochemical; conditions: nuclear extracts; IBMX 500 μM, rolipram 10 μM, CGS-15943 10 μM
Procedure: FIG. 13. […] (a) Direct effect of the PDE4 inhibitor rolipram (10 μM) and the adenosine receptor antagonist CGS-15943 (10 μM) on HDAC activity. […] (b) Direct effect of the MEK inhibitor PD089159 (1 μM) and the p38 MAPK inhibitor SB203580 on theophylline induced HDAC activity.

[9] = tested on: HAT activity; test: Direct effect on HAT activity; format: biochemical; conditions: IBMX 500 μM, rolipram 10 μM, CGS-15943 10 μM
[10] = tested on: HDAC activity, BAL macrophages; test: HDAC activity in BAL macrophages; format: cell-based, human; conditions: 24 hours, rolipram 10 μM
[11] = tested on: HAT activity, BAL macrophages; test: HAT activity in BAL macrophages; conditions: rolipram 10 μM
Procedure: HAT activity (a) and HDAC activity (b) were measured as described in the methods. Results are expressed as mean±SEM (n=5).
Fibreoptic bronchoscopy and isolation of BAL macrophages: Subjects attended our bronchoscopy suite at 8.30 am after having fasted from midnight and were pretreated with atropine (0.6 mg iv) and midazolam (5-10 mg iv). Oxygen (31/min) was administered via nasal prongs throughout the procedure and oxygen saturation was monitored with a digital oximeter. Using local anaesthesia with lidocaine (4%) to the upper airways and larynx, a fibreoptic bronchoscope (Olympus BF10) was passed through the nasal passages into the trachea. Bronchoalveolar lavage (BAL) was performed from the right middle lobe using warmed 0.9% NaCl with 4 successive aliquots of 60 mls of 0.9% NaCl. […] Cytospins were prepared and stained with May-Grunwald stain for differential cell counts. Cell viability was assessed using trypan blue exclusion.
After incubation for 10 min at 37° C. cells were stimulated for 6 hr. […] Gels were stained with Coommasie brilliant blue and the core histones (H2A, H2B, H3 and H4) excised. The radioactivity in extracted core histones was determined by liquid scintillation counting and normalised to protein level.

Row | EC50 ([1]; Homo sapiens, A549, read-out: EC50, induction of SLPI) [nM] | IC50, p65-associated IL-1β-induced histone acetylation [4] [nM] | IC50, p65-associated histone acetylation in the presence of TSA ([4]; TSA 100 ng/ml) [nM] | IC50 ([5]; CBP immunoprecipitated under stringent IP conditions, read-out: IC50, IL-1β-stimulated CBP-dependent histone acetylation) [nM] | IC50, IL-1β-induced CBP-associated histone acetylation ([5]; CBP isolated under mild IP conditions) [nM] | Structure (SMILES) | concentration of maximum SLPI induction ([1]; dexamethasone alone) [µM] | concentration giving maximum induction of histone acetylation ([2]; between 4-8 hr) | basal histone acetylation ([2]; dexamethasone 10^−10 M alone, no effect) [dpm/μg protein] | IL-1β plus dexamethasone-stimulated histone acetylation ([2]; dexamethasone 10^−10 M, no TSA) [dpm/μg protein] | dexamethasone-induced histone acetylation ([2]; without TSA) [dpm/μg protein] | acetylated histone H4 K5 [3] [% positive nuclei] | acetylated histone H4 K16 [3] [% positive nuclei] | CBP or PCAF expression [6] | total cell HDAC activity after IL-1β plus H2O2 [7] | direct effect on HDAC activity [8] | direct effect on HAT activity [9] | HDAC activity [10] | HAT activity [11]
1 | 9 | 0.4 | 90 | 8 | 0.04 | C[C@@H]1C[C@H]2[C@@H]3CCC4=CC(=O)C=C[C@]4(C)[C@@]3(F)[C@@H](O)C[C@]2(C)[C@@]1(O)C(=O)CO [dexamethasone] | 1 | ≥ 10^−8 M | 23.7±4.1 | 37±5 | 71±9 | 53±9 | 36±16 | no effect | no effect | – | – | – | –
2 | – | – | – | – | – | COc1ccc(C2CNC(=O)C2)cc1OC1CCCC1 (stereo not drawn) [rolipram] | – | – | – | – | – | – | – | – | – | no direct effect | no direct effect | no effect | no effect
